Drawing on ChEMBL document CHEMBL3880442, “NHE3-binding compounds and methods for inhibiting phosphate transport” (2014), this text covers Activity and inhibition for 16 compounds.

The source made the active and inactive calls. No cut-off for these calls is given here.

Assay [1] relates to Rattus norvegicus. Description: Effect on phosphate level in urine in Sprague-Dawley rat at 3 mg/kg administered via oral gavage measured after 16 hrs by gravimetric analysis relative to vehicle-treated control. It counts as functional.
Assay [2] concerns Rattus norvegicus. Kind of assay: Effect on sodium level in urine in Sprague-Dawley rat at 3 mg/kg administered via oral gavage measured after 16 hrs by gravimetric analysis relative to vehicle-treated control. It counts as functional.
Assay [3] relates to Rattus norvegicus. Description: Effect on phosphate level in urine in Sprague-Dawley rat at 10 mg/kg administered via oral gavage measured after 16 hrs by gravimetric analysis relative to vehicle-treated control. The class given is functional.
Assay [4] relates to Rattus norvegicus. Description: Effect on sodium level in urine in Sprague-Dawley rat at 10 mg/kg administered via oral gavage measured after 16 hrs by gravimetric analysis relative to vehicle-treated control. It counts as functional.
The subject of assay [5] is Rattus norvegicus. Kind of assay: Inhibition of NHE3-mediated intestinal phosphate uptake in rat at 10 mg/kg, po administered with 33-labeled Pi in presence of glucose and calcium. It counts as functional, organism-based.
Assay [6] has as its system Rattus norvegicus. Description: Inhibition of NHE3-mediated intestinal phosphate uptake in rat at 10 mg/kg, po administered with 33-labeled Pi in presence of calcium. It counts as functional, organism-based.
In assay [7] the test system is Rattus norvegicus. Kind of assay: Inhibition of NHE3-mediated intestinal phosphate uptake in rat at 10 mg/kg, po administered with 33-labeled Pi. It counts as functional, organism-based.
For assay [8], the system named is Rattus norvegicus. Kind of assay: Reduction in urinary sodium level in rat at 10 mg/kg, po administered with 33-labeled Pi. The class given is functional, organism-based.
The subject of assay [9] is Rattus norvegicus. Kind of assay: Effect on sodium level in urine in Sprague-Dawley rat at 1 mg/kg administered via oral gavage measured after 16 hrs by gravimetric analysis relative to vehicle-treated control. It counts as functional.
Assay [10] has as its system Rattus norvegicus. Kind of assay: Effect on fecal form in rat at 10 mg/kg, po administered with 33-labeled Pi. The class given is functional, organism-based.

As for `CN1Cc2c(Cl)cc(Cl)cc2[C@@H](c2cccc(S(=O)(=O)NCCOCCOCCNC(=O)NCCCC(N)(CCCNC(=O)NCCOCCOCCNS(=O)(=O)c3cccc([C@@H]4CN(C)Cc5c(Cl)cc(Cl)cc54)c3)CCCNC(=O)NCCOCCOCCNS(=O)(=O)c3cccc([C@@H]4CN(C)Cc5c(Cl)cc(Cl)cc54)c3)c2)C1`, the Activity was 50% in assay [1] and 56% in [2].

Turning to `CN1Cc2c(Cl)cc(Cl)cc2[C@H](c2cccc(S(=O)(=O)NCCOCCOCCNC(=O)NCCN(CCNC(=O)NCCOCCOCCNS(=O)(=O)c3cccc([C@@H]4CN(C)Cc5c(Cl)cc(Cl)cc54)c3)C(=O)CCOCCOCCOCCOCCOCCC(=O)N(CCNC(=O)NCCOCCOCCNS(=O)(=O)c3cccc([C@@H]4CN(C)Cc5c(Cl)cc(Cl)cc54)c3)CCNC(=O)NCCOCCOCCNS(=O)(=O)c3cccc([C@@H]4CN(C)Cc5c(Cl)cc(Cl)cc54)c3)c2)C1`, the figures for the Activity in assay [3] and in assay [4] were 69% and 47%, respectively.

With `CN(C)[C@H]1Cc2c(Cl)cc(Cl)cc2[C@@H]1Oc1ccc(S(=O)(=O)N(C)CCOCCOCCNC(=O)NCCCCNC(=O)NCCOCCOCCN(C)S(=O)(=O)c2ccc(O[C@H]3c4cc(Cl)cc(Cl)c4C[C@@H]3N(C)C)cc2)cc1`, the Activity in [3] and in assay [4] was 49% in each case.

Regarding `O=C(NCCCCNC(=O)NCCOCCOCCNS(=O)(=O)c1ccc(O[C@H]2c3ccccc3C[C@@H]2N2CCCCC2)cc1)NCCOCCOCCNS(=O)(=O)c1ccc(O[C@H]2c3ccccc3C[C@@H]2N2CCCCC2)cc1`, the figures for the Activity in assay [3] and in [4] were 30 - 51% and 35 - 73%, respectively.

Turning to `CN1Cc2c(Cl)cc(Cl)cc2[C@H](c2cccc(S(=O)(=O)NCCOCCOCCOCCNC(=O)CN(CCOCCOCCN(CC(=O)NCCOCCOCCOCCNS(=O)(=O)c3cccc([C@@H]4CN(C)Cc5c(Cl)cc(Cl)cc54)c3)CC(=O)NCCOCCOCCOCCNS(=O)(=O)c3cccc([C@@H]4CN(C)Cc5c(Cl)cc(Cl)cc54)c3)CC(=O)NCCOCCOCCOCCNS(=O)(=O)c3cccc([C@@H]4CN(C)Cc5c(Cl)cc(Cl)cc54)c3)c2)C1`, the Activity in assay [3] is recorded as 95%; in [4] it was 51%.

As to `O=C(O)CN(CCN(CC(=O)O)CC(=O)NCCOCCOCCNS(=O)(=O)c1ccc(O[C@H]2c3ccccc3C[C@@H]2N2CCCCC2)cc1)CC(=O)NCCOCCOCCNS(=O)(=O)c1ccc(O[C@H]2c3ccccc3C[C@@H]2N2CCCCC2)cc1`, the Activity in assay [3] is recorded as 55 - 85%; in assay [4], 68 - 93%.

`N=C(N)Nc1nc(-c2ccc(N3CCN(CCOCCOCCOCCNC(=O)CCOCCOCCOCCOCCOCCC(=O)NCCOCCOCCOCCN4CCN(c5ccc(-c6nc(NC(=N)N)nc7ccc(Cl)cc67)cc5)CC4)CC3)cc2)c2cc(Cl)ccc2n1` yielded an Activity in assay [4] of 100%.

Regarding `CN1Cc2c(Cl)cc(Cl)cc2[C@H](c2cccc(S(=O)(=O)NCCOCCOCCN(C)C(=O)NCCCN(CCCNC(=O)N(C)CCOCCOCCNS(=O)(=O)c3cccc([C@@H]4CN(C)Cc5c(Cl)cc(Cl)cc54)c3)CCCNC(=O)N(C)CCOCCOCCNS(=O)(=O)c3cccc([C@@H]4CN(C)Cc5c(Cl)cc(Cl)cc54)c3)c2)C1`, the Activity in [1] worked out at 68%; in assay [2] it was 38%.

For the compound `CN1Cc2c(Cl)cc(Cl)cc2[C@H](c2cccc(S(=O)(=O)NCCOCCOCCNC(=O)CCC(CCC(=O)NCCOCCOCCNS(=O)(=O)c3cccc([C@@H]4CN(C)Cc5c(Cl)cc(Cl)cc54)c3)(CCC(=O)NCCOCCOCCNS(=O)(=O)c3cccc([C@@H]4CN(C)Cc5c(Cl)cc(Cl)cc54)c3)NC(=O)N[C@@H](CC(=O)O)C(=O)O)c2)C1`, the Activity in [1] was 51%; in [2], 41%.

On to `O=C(NCCCCNC(=O)NCCOCCOCCOCCNS(=O)(=O)c1ccc(O[C@H]2c3ccccc3C[C@@H]2N2CCCCC2)cc1)NCCOCCOCCOCCNS(=O)(=O)c1ccc(O[C@H]2c3ccccc3C[C@@H]2N2CCCCC2)cc1`, for which the Activity in [3] is 43 - 52%; in assay [4], 33 - 79%.

Consider `CN1Cc2c(Cl)cc(Cl)cc2[C@@H](c2cccc(S(=O)(=O)NCCOCCOCCNC(=O)NCCCCNC(=O)NCCOCCOCCNS(=O)(=O)c3cccc([C@H]4CN(C)Cc5c(Cl)cc(Cl)cc54)c3)c2)C1`, for which the inhibition entry in assay [5], in [6] and in [7] was “Active” in each case.

In assay [4], `CN1Cc2c(Cl)cc(Cl)cc2[C@@H](c2cccc(S(=O)(=O)NCCOCCOCCNC(=O)NCCCCNC(=O)NCCOCCOCCNS(=O)(=O)c3cccc([C@@H]4CN(C)Cc5c(Cl)cc(Cl)cc54)c3)c2)C1.Cl.Cl` displayed an Activity of 90%.

As to `CN1Cc2c(Cl)cc(Cl)cc2[C@H](c2cccc(S(=O)(=O)NCCOCCOCCNC(=O)CCC(CCC(=O)NCCOCCOCCNS(=O)(=O)c3cccc([C@@H]4CN(C)Cc5c(Cl)cc(Cl)cc54)c3)(CCC(=O)NCCOCCOCCNS(=O)(=O)c3cccc([C@@H]4CN(C)Cc5c(Cl)cc(Cl)cc54)c3)NC(=O)N3CCN(CCOCCO)CC3)c2)C1`, the Activity is given as 34% in [1] and 31% in assay [2].

Regarding `CN(CC(=O)NCCOCCOCCOCCN1CCN(c2ccc(-c3nc(NC(=N)N)nc4ccc(Cl)cc34)cc2)CC1)CC(=O)NCCOCCOCCOCCN1CCN(c2ccc(-c3nc(NC(=N)N)nc4ccc(Cl)cc34)cc2)CC1`, the values for the Activity in assay [3] and in [4] were 101% and 66%, respectively.

Turning to `CN1Cc2c(Cl)cc(Cl)cc2[C@H](c2cccc(S(=O)(=O)NCCOCCOCCNC(=O)Nc3ccc(NC(=O)NCCOCCOCCNS(=O)(=O)c4cccc([C@@H]5CN(C)Cc6c(Cl)cc(Cl)cc65)c4)cc3)c2)C1.Cl.Cl`, the inhibition entry in assay [5], in assay [6] and in [7] was “Active” throughout. The result in assay [8] and in [10] was Active. For the same compound, in assay [9], the Activity was 22%.

For the compound `CN1Cc2c(Cl)cc(Cl)cc2[C@H](c2ccc(S(=O)(=O)NCCOCCOCCOCCNC(=O)COCC(=O)NCCOCCOCCOc3cccc(-c4nc(NC(=N)N)nc5ccc(Cl)cc45)c3)cc2)C1`, the Activity amounted to 150% in assay [3] and 87% in assay [4].
